This is an account of results in patent publication US20230140430A1, “1H-PYRAZOLO[4,3-d]PYRIMIDINE COMPOUNDS AS TOLL-LIKE RECEPTOR 7 (TLR7) AGONISTS” (BRISTOL-MYERS SQUIBB COMPANY, priority 2020, published 2023).

The subject of one experiment is CD69. The experiment in a line: Induction of CD69 in human whole blood. In kind it is cell-based. The method, then: The induction of Type I interferon (IFN) MX-1 genes and the B-cell activation marker CD69 are downstream events that occur upon activation of the TLR7 pathway. The following is a human whole blood assay that measures their induction in response to a TLR7 agonist.
Heparinized human whole blood was harvested from human subjects and treated with test TLR7 agonist compounds at 1 mM. The blood was diluted with RPMI 1640 media and Echo was used to predot 10 nL per well giving a final concentration of 1 uM (10 nL in 10 uL of blood). After mixing on a shaker for 30 sec, the plates were covered and placed in a 37° C. chamber for o/n=17 hrs. Fixing/lysis buffer was prepared (5×->1× in H2O, warm at 37° C.; Cat #BD 558049) and kept the perm buffer (on ice) for later use.
For surface markers staining (CD69): prepared surface Abs: 0.045 ul hCD14-FITC (ThermoFisher Cat #MHCD1401)+0.6 ul hCD19-ef450 (ThermoFisher Cat #48-0198-42)+1.5 ul hCD69-PE (cat #BD555531)+0.855 ul FACS buffer. Added 3 ul/well, spin1000 rpm for 1 min and mixed on shaker for 30 sec, put on ice for 30 mins. Stop stimulation after 30 min with 70 uL of prewarmed 1× fix/lysis buffer and use Feliex mate to resuspend (15 times, change tips for each plate) and incubate at 37 C for 10 min.
Centrifuge at 2000 rpm for 5 min aspirate with HCS plate washer, mix on shaker for 30 sec and then wash with 70 uL in dPBS and pelleted 2×s (2000 rpm for 5 min) and 50 ul wash in FACS buffer pelleted 1×s (2000 rpm for 5 min). Mix on shaker for 30 sec. For Intracellular markers staining (MX-1): Add 50 ul of BD Perm buffer III and mix on shaker for 30 sec. Incubate on ice for 30 minutes (in the dark). Wash with 50 uL of FACS buffer 2× (spin @2300 rpm×5 min after perm) followed by mixing on shaker for 30 sec. Resuspended in 20 ul of FACS buffer containing MX1 antibody ( )(4812)-Alexa 647: Novus Biologicals #NBP2-43704AF647) 20 ul FACS bf+0.8 ul hlgG+0.04 ul MX-1. Spin 1000 rpm for 1 min, mix on shaker for 30se and the samples were incubated at RT in the dark for 45 minutes followed by washing 2×FACS buffer (spin @2300 rpm×5 min after perm). Resuspend 20 ul (35 uL total per well) of FACS buffer and cover with foil and place in 4° C. to read the following day. Plates were read on iQuePlus. The results were loaded into toolset and […] curves are generated in curve master. The y-axis 100% is set to 1 uM of resiquimod.

The next experiment addresses T1, human TLR7 (Homo sapiens, UniProt Q9NYK1).
T1 construct: host or cells: HEK-Blue TLR7 cells (engineered human embryonic kidney cells)
T1 sequence (Q9NYK1 27-1049): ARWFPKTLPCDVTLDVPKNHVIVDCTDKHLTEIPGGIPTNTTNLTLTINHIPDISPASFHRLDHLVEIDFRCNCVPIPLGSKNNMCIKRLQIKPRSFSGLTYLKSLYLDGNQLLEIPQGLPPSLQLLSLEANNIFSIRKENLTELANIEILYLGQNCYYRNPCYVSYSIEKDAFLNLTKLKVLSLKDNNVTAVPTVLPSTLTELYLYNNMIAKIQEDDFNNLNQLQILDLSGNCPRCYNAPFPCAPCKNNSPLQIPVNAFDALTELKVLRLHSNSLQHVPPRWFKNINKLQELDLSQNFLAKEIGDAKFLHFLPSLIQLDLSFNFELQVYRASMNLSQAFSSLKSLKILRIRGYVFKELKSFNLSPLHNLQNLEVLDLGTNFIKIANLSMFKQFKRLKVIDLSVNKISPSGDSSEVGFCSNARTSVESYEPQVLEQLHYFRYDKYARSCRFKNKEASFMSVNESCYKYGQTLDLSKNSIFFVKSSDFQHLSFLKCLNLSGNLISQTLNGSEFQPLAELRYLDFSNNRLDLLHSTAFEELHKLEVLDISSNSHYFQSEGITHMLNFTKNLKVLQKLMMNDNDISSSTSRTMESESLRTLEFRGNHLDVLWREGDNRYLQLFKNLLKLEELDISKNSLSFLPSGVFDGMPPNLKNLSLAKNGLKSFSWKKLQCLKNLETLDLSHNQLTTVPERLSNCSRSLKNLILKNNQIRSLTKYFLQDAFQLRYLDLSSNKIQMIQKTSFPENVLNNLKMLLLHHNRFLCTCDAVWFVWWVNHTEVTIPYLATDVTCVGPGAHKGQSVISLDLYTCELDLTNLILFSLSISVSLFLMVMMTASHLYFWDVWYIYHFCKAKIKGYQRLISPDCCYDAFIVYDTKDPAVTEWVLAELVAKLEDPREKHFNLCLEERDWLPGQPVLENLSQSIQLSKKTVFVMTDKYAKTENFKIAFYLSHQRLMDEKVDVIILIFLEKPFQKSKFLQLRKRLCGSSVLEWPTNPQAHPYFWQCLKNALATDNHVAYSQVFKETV
The experiment in a line: Human TLR7 agonist activity assay (HEK-Blue TLR7 SEAP reporter). The settings on record: HEK-Blue TLR7 cells, 18 h treatment, average where assay was performed multiple times, read-out: hTLR7 Agonism EC50. Format: cell-based.

Setting [1] is: human whole blood, 17 hrs, CD69 surface staining, 100% set to 1 uM of resiquimod, average where assay was performed multiple times, read-out: hWB CD69 EC50.
Where [2] appears, read: Homo sapiens, 17 h, read-out: hWB CD69 EC50 (nM).

Read-outs that look alike come from different tables or passages of the source.

Method for human TLR7: This procedure describes a method for assaying human TLR7 (hTLR7) agonist activity of the compounds disclosed in this specification.
HEK-Blue™ TLR7 cells were added to each well of a 384-well tissue-culture plate (15,000 cells per well) and incubated 16-18 h at 37° C., 5% CO2. Compounds (100 nl) were dispensed into wells containing the HEK-Blue™ TLR cells and the treated cells were incubated at 37° C., 5% CO2. After 18 h treatment ten microliters of freshly-prepared Quanti-Blue™ reagent (Invivogen) was added to each well, incubated for 30 min (37° C., 5% CO2) and SEAP levels measured using an Envision plate reader (OD=620 nm).

`CCC[C@@H](CCO)Nc1nc(N)nc2cnn(Cc3ccc(C(=O)NCC4CCNCC4)cc3OC)c12` [Compound 101, 4-[(5-amino-7-{[(3S)-1-hydroxyhexan-3-yl]amino}-1H-pyrazolo[4,3-d]pyrimidin-1-yl)methyl]-3-methoxy-N-[(piperidin-4-yl)methyl]benzamide]: the EC50 is not below 1000 nM in the experiment on CD69 (setting [1]) and 1300 nM on human TLR7.
In the case of `CCCCNc1nc(N)nc2cnn(Cc3ccc(C(=O)NC4CCOCC4)cc3OC)c12` [Compound 102, 4-{[5-amino-7-(butylamino)-1H-pyrazolo[4,3-d]pyrimidin-1-yl]methyl}-3-methoxy-N-(oxan-4-yl)benzamide], the concentration giving a half-maximal response (EC50) in the experiment on CD69 (setting [1]) was not below 1000 nM.
Take `CCCCNc1nc(N)nc2cnn(Cc3ccc(C(=O)NC4CCC4)cc3OC)c12` [Compound 103, 4-{[5-amino-7-(butylamino)-1H-pyrazolo[4,3-d]pyrimidin-1-yl]methyl}-N-cyclobutyl-3-methoxybenzamide]: the concentration giving a half-maximal response (EC50) is not below 1000 nM in the experiment on CD69 (setting [1]) and 1660 nM at human TLR7.
In the case of `CCCCNc1nc(N)nc2cnn(Cc3ccc(C(=O)N4CCNCC4)cc3OC)c12` [Compound 104, N7-butyl-1-{[2-methoxy-4-(piperazine-1-carbonyl)phenyl]methyl}-1H-pyrazolo[4,3-d]pyrimidine-5,7-diamine], the 50% effective concentration (EC50) with CD69 (setting [1]) worked out at 120 nM; on human TLR7 it was 40.7 nM.
On the same counts, the results for `CCCCNc1nc(N)nc2cnn(Cc3ccc(C(=O)N4CCN(CCO)CC4)cc3OC)c12` [Compound 105, 2-[4-(4-{[5-amino-7-(butylamino)-1H-pyrazolo[4,3-d]pyrimidin-1-yl]methyl}-3-methoxybenzoyl)piperazin-1-yl]ethan-1-ol] are 32.1 nM and 32.6 nM.
On the same counts, the results for `CCCCNc1nc(N)nc2cnn(Cc3ccc(C(=O)N4CCN(C)CC4)cc3OC)c12` [Compound 106, N7-butyl-1-{[2-methoxy-4-(4-methylpiperazine-1-carbonyl)phenyl]methyl}-1H-pyrazolo[4,3-d]pyrimidine-5,7-diamine] are 4.5 nM and 20.8 nM.
The matching figures for `CCCCNc1nc(N)nc2cnn(Cc3ccc(C(=O)N4CCN(C(C)=O)CC4)cc3OC)c12` [Compound 107, 1-[4-(4-{[5-amino-7-(butylamino)-1H-pyrazolo[4,3-d]pyrimidin-1-yl]methyl}-3-methoxybenzoyl)piperazin-1-yl]ethan-1-one]: 93.4 nM and 264 nM.
Turning to `CCCCNc1nc(N)nc2cnn(Cc3ccc(C(=O)N4CCN(CC(F)(F)F)CC4)cc3OC)c12` [Compound 108, N7-butyl-1-({2-methoxy-4-[4-(2,2,2-trifluoroethyl)piperazine-1-carbonyl]phenyl}methyl)-1H-pyrazolo[4,3-d]pyrimidine-5,7-diamine], the half-maximal effective concentration (EC50) in the experiment on CD69 (setting [1]) is not below 1000 nM; at human TLR7 it was 602 nM.
The matching figures for `CCCCNc1nc(N)nc2cnn(Cc3ccc(C(=O)N4CCC(N(C)C)CC4)cc3OC)c12` [Compound 109, N7-butyl-1-({4-[4-(dimethylamino)piperidine-1-carbonyl]-2-methoxyphenyl}methyl)-1H-pyrazolo[4,3-d]pyrimidine-5,7-diamine]: 49.6 nM and 29.7 nM.
With `CCCCNc1nc(N)nc2cnn(Cc3ccc(C(=O)N4CCCN(C)CC4)cc3OC)c12` [Compound 110, N7-butyl-1-{[2-methoxy-4-(4-methyl-1,4-diazepane-1-carbonyl)phenyl]methyl}-1H-pyrazolo[4,3-d]pyrimidine-5,7-diamine], the EC50 was 3.9 nM in the experiment on CD69 (setting [1]) and 16.3 nM at human TLR7.
On the same counts, the results for `CCCCNc1nc(N)nc2cnn(Cc3ccc(C(=O)NCCN(C)C)cc3OC)c12` [Compound 111, 4-{[5-amino-7-(butylamino)-1H-pyrazolo[4,3-d]pyrimidin-1-yl]methyl}-N-[2-(dimethylamino)ethyl]-3-methoxybenzamide] are 6.8 nM and 78 nM.
On the same counts, the results for `CCCCNc1nc(N)nc2cnn(Cc3ccc(C(=O)N4CCC(CO)CC4)cc3OC)c12` [Compound 112, [1-(4-{[5-amino-7-(butylamino)-1H-pyrazolo[4,3-d]pyrimidin-1-yl]methyl}-3-methoxybenzoyl)piperidin-4-yl]methanol] are 81.9 nM and 154 nM.
On the same counts, the results for `CCCCNc1nc(N)nc2cnn(Cc3ccc(C(=O)N4CCC(O)CC4)cc3OC)c12` [Compound 113, 1-(4-{[5-amino-7-(butylamino)-1H-pyrazolo[4,3-d]pyrimidin-1-yl]methyl}-3-methoxybenzoyl)piperidin-4-ol] are 106 nM and 111 nM.
With `CCCCNc1nc(N)nc2cnn(Cc3ccc(C(=O)NC4CCN(C)CC4)cc3OC)c12` [Compound 114, 4-{[5-amino-7-(butylamino)-1H-pyrazolo[4,3-d]pyrimidin-1-yl]methyl}-3-methoxy-N-(1-methylpiperidin-4-yl)benzamide], the EC50 with CD69 (setting [2]) came to 24.4 nM; on human TLR7, 68.9 nM.
Regarding `CCCCNc1nc(N)nc2cnn(Cc3ccc(C(=O)N4CCNC(=O)C4)cc3OC)c12` [Compound 115, 4-(4-{[5-amino-7-(butylamino)-1H-pyrazolo[4,3-d]pyrimidin-1-yl]methyl}-3-methoxybenzoyl)piperazin-2-one], the half-maximal effective concentration (EC50) in the experiment with CD69 (setting [1]) was 224 nM; at human TLR7, 384 nM.
The matching figures for `CCCCNc1nc(N)nc2cnn(Cc3ccc(C(=O)N4CCC(CCO)CC4)cc3OC)c12` [Compound 116, 2-[1-(4-{[5-amino-7-(butylamino)-1H-pyrazolo[4,3-d]pyrimidin-1-yl]methyl}-3-methoxybenzoyl)piperidin-4-yl]ethan-1-ol]: 42.6 nM and 41.6 nM.
On to `CCCCNc1nc(N)nc2c(C)nn(Cc3ccc(C(=O)NC4CCN(C)CC4)cc3OC)c12` [Compound 117, 4-{[5-amino-7-(butylamino)-3-methyl-1H-pyrazolo[4,3-d]pyrimidin-1-yl]methyl}-3-methoxy-N-(1-methylpiperidin-4-yl)benzamide], for which the results for the EC50 in the experiment on CD69 (setting [2]) and on human TLR7 were 56.9 nM and 467 nM, respectively.
In the case of `CCCCNc1nc(N)nc2c(C)nn(Cc3ccc(C(=O)N4CCN(CCO)CC4)cc3OC)c12` [Compound 118, 2-[4-(4-{[5-amino-7-(butylamino)-3-methyl-1H-pyrazolo[4,3-d]pyrimidin-1-yl]methyl}-3-methoxybenzoyl)piperazin-1-yl]ethan-1-ol], the concentration giving a half-maximal response (EC50) with CD69 (setting [1]) stood at 63.3 nM; at human TLR7, 405 nM.

The EC50 is the midpoint of the concentration-response curve.
